{"source": "patent US20260124222A1", "about": "“ISOTHIAZOLYLCARBOXAMIDE COMPOUNDS AND THEIR USE IN THERAPY” (HOTSPOT THERAPEUTICS, INC., priority 2022, published 2026)"}
{"molecular_target": "T1, Avi-tagged FL MALT-1 (Homo sapiens, UniProt Q9UDY8)", "T1 construct": "Avi-tagged FL MALT-1 (Pharmaron, stored at −70° C.); Avi-tag; purchased Pharmaron", "T1 sequence (Q9UDY8 1-824)": "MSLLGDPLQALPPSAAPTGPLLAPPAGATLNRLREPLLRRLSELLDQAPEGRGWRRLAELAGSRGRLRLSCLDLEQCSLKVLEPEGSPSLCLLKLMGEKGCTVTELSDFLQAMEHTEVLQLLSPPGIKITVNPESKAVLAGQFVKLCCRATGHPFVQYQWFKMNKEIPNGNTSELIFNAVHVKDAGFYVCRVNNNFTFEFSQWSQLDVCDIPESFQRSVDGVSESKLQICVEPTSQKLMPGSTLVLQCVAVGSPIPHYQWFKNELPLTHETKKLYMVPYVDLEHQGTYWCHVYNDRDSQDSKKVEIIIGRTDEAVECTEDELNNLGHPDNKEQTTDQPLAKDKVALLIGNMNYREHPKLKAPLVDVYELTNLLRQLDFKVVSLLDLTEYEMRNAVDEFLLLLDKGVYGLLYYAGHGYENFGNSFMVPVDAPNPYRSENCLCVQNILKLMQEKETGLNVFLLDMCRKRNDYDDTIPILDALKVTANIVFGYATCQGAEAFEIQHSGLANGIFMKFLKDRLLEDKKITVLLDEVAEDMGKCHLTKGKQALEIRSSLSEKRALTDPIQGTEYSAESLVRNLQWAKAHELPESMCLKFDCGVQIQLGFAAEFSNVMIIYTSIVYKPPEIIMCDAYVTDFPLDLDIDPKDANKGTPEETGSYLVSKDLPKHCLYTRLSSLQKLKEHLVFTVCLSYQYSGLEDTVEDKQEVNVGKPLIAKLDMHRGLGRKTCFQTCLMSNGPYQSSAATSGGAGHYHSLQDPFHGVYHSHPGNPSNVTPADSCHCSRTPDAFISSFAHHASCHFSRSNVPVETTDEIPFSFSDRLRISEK", "experiment": "MALT-1 Fluorogenic Peptide Cleavage Assay (MALT1 inhibition assay)", "assay_type": "biochemical", "settings": "Ac-LRSR-AMC peptide substrate; 30 min pre-incubation, 90 min reaction at room temperature; fluorescence", "procedure": "Inhibition of MALT1 activity by a small molecule was evaluated using MALT-1 Fluorogenic Peptide Cleavage Assay. The assay utilizes a quenched AMC-labelled peptide that contains the MALT-1 recognition sequence and cleavage site (LRSR). MALT-1 mediated cleavage of the peptide relieves the quenching and leads to an increase in fluorescence at excitation (342 nm) and emission (441 nm).\nThe following reagents were obtained commercially and used to prepare standard reagent formulations as further described below: N-2-hydroxyethylpiperazine-N-2-ethane sulfonic acid (HEPES) (1 M, pH 7.5, stored at 4° C.), sodium citrate (stored at RT), tris(2-carboxyethyl)phosphine hydrochloride (T-CEP) (500 mM, stored at −20° C.), ethylenediaminetetraacetic acid (EDTA) (500 mM, stored at RT), dimethylsulfoxide (DMSO, stored at RT), 3-[(3-cholamidopropyl)dimethylammonio]-1-propane sulphate (CHAPS) (stored at RT), dimethylsulfoxide (DMSO), DMSO (Fisher Scientific, stored at RT), Avi-tagged FL MALT-1 (Pharmaron, stored at −70° C.), Ac-LRSR-AMC Peptide (SM Biochemicals, stored at −20° C.), and ultrapure water (MILLI-Q®).\nThe standard reagent formulations used in this assay were prepared and stored as follows. A 1.1 M solution of sodium citrate (161.3 g, 500 mL) was prepared and stored at room temperature. A 10% (w/v) CHAPS solution (2.0 g, 20 mL) was prepared and stored at 4° C. A 500 mM HEPES solution having pH of 6.89 was prepared from 200 mL of a 1 M HEPES solution having a pH of 7.5 using concentrated hydrochloric acid and brought to a final volume of 400 mL with MILLI-Q© H2O. The substrate, 10 mM Ac-LRSR-AMC Peptide, was prepared (10 mg, 1.370 mL DMSO) and stored at −20° C.\nCompounds were plated to provide a 2% DMSO final concentration using a ProxiPlate-384 Plus F Black 384-shallow well microplate. The assay-ready plates were equilibrated to room temperature. A reaction buffer (30 mL total volume) was prepared by combining HEPES (pH 6.89, 25 mM, 1.5 mL), sodium citrate (660 mM, 18.0 mL), T-CEP (1 mM, 0.06 mL), EDTA (0.1 mM, 0.06 mL), CHAPS (0.05%, 0.15 mL), DMSO (2%, 0.6 mL), and MILLI-Q® H2O (10.23 mL; 9.63 mL when backfilled to 2% DMSO) followed by thorough mixing.\nMALT-1 was thawed and kept on ice. Peptide substrate was thawed on the bench under ambient conditions. A MALT-1 enzyme working stock was prepared from Avi-tagged FL MALT-1 (40 nM in a prepared reagent volume of […]) and the reaction buffer (13.0 mL). MALT1 working stock (5 μL) was added to each well of the microplate. MALT-1 was pre-incubated with compounds for 30 minutes at room temperature.\nTwo substrate working stocks (Km and 10×Km) were prepared. The 1×Km substrate was prepared from Ac-LRSR-AMC Peptide (50 μM in a prepared reagent volume of […]) and the reaction buffer (6.965 mL). The 10×Km substrate was prepared from Ac-LRSR-AMC Peptide ([…] in a prepared reagent volume of 196.0 μL) and the reaction buffer (6.804 mL). The reaction was initiated by the addition of substrate working stock (5 μL, 50 μM) to Km plates and the addition of substrate working stock (5 μL 280 μM) to 10×Km plates. The plates were covered and incubated on the bench at room temperature for 90 minutes.\nFluorescence intensity was determined using a CLARIOstar microplate reader (BMG LABTECH) using the optimised AMC mode. Before taking readings, a 70% gain was applied on the neutral control well. Compound data were normalised to % Inhibition and used to plot sigmoidal concentration response curves to yield various parameters including IC50.", "units": {"IC50": "nM"}}
{"smiles": "Cn1nnc2cccc(-c3nsc(C(=O)Nc4cnc(-n5nccn5)c(C#N)c4)c3C3CC3)c21", "note": "[I-120]", "IC50": "≤ 400"}
{"smiles": "CC(=O)N1CC(c2nsc(C(=O)Nc3cnc(-n4nccn4)c(C#N)c3)c2C(F)(F)F)C1", "note": "[I-129, 3-(1-acetylazetidin-3-yl)-N-[5-cyano-6-(1,2,3-triazol-2-yl)pyridin-3-yl]-4-(trifluoromethyl)-1,2-thiazole-5-carboxamide]", "IC50": "> 2500"}
{"smiles": "Cn1cc(-c2nsc(C(=O)Nc3cnc(-n4nccn4)c(C#N)c3)c2C(F)(F)F)ccc1=O", "note": "[I-36, N-(5-CYANO-6-(2H-1,2,3-TRIAZOL-2-YL)PYRIDIN-3-YL)-3-(1-METHYL-6-OXO-1,6-DIHYDROPYRIDIN-3-YL)-4-(TRIFLUORO-METHYL)ISOTHIAZOLE-5-CARBOXAMIDE]", "IC50": "≤ 400"}
{"smiles": "O=C(Nc1ccnc(C(F)(F)F)c1)c1snc(-c2cccc(C(F)F)c2)c1C1CC1", "note": "[I-174, 4-cyclopropyl-3-[3-(difluoromethyl)phenyl]-N-[2-(trifluoromethyl)pyridin-4-yl]-1,2-thiazole-5-carboxamide]", "IC50": "≤ 400"}
{"smiles": "N#Cc1cc(NC(=O)c2snc(O)c2C2CC2)cnc1-n1nccn1", "note": "[I-52, N-(5-CYANO-6-(2H-1,2,3-TRIAZOL-2-YL) PYRIDIN-3-YL)-4-CYCLOPROPYL-3-HYDROXYISOTHIAZOLE-5-CARBOXAMIDE]", "IC50": "> 2500"}
{"smiles": "O=C(Nc1ccc(C(=O)N2CC(O)C2)c(Cl)c1)c1snc(-c2cccc3c(=O)[nH]ccc23)c1C1CC1", "note": "[I-198, N-(3-chloro-4-(3-hydroxyazetidine-1-carbonyl)phenyl)-4-cyclopropyl-3-(1-oxo-1,2-dihydroisoquinolin-5-yl)isothiazole-5-carboxamide]", "IC50": "≤ 400"}
{"smiles": "Cc1cc(NC(=O)c2snc(-c3ccccc3)c2C2CC2)cnc1-n1nccn1", "note": "[I-12, 4-CYCLOPROPYL-N-(5-METHYL-6-(2H-1,2,3-TRIAZOL-2-YL)PYRIDIN-3-YL)-3-PHENYLISOTHIAZOLE-5-CARBOXAMIDE]", "IC50": "≤ 400"}
{"smiles": "Cc1noc(C)c1-c1nsc(C(=O)Nc2ccnc(C(F)(F)F)c2)c1C1CC1", "note": "[I-197, 4-cyclopropyl-3-(3,5-dimethylisoxazol-4-yl)-N-(2-(trifluoromethyl)pyridin-4-yl)isothiazole-5-carboxamide]", "IC50": "≤ 400"}
{"smiles": "O=C(Nc1ccnc(C(F)(F)F)c1)c1snc(-c2ccc3[nH]ncc3c2)c1C1CC1", "note": "[I-166, 4-cyclopropyl-3-(1H-indazol-5-yl)-N-(2-(trifluoromethyl)pyridin-4-yl)isothiazole-5-carboxamide]", "IC50": "≤ 400"}
{"smiles": "N#Cc1c(-c2ccccc2)nsc1C(=O)Nc1cnc(-n2nccn2)c(Cl)c1", "note": "[I-4, N-(5-CHLORO-6-(2H-1,2,3-TRIAZOL-2-YL)PYRIDIN-3-YL)-4-CYANO-3-PHENYLISOTHIAZOLE-5-CARBOXAMIDE]", "IC50": "400 to 1000"}
{"smiles": "CN(C(=O)c1snc(-c2ccccc2)c1C(F)(F)F)c1cnc(-n2nccn2)c(Cl)c1", "note": "[I-18, N-(5-CHLORO-6-(2H-1,2,3-TRIAZOL-2-YL) PYRIDIN-3-YL)-N-METHYL-3-PHENYL-4-(TRIFLUOROMETHYL)ISOTHIAZOLE-5-CARBOXAMIDE]", "IC50": "≤ 400"}
{"smiles": "O=C(Nc1ccc(C(=O)N2CC(O)C2)c(Cl)c1)c1snc(-c2cccc3ncccc23)c1C1CC1", "note": "[I-133, N-(3-chloro-4-(3-hydroxyazetidine-1-carbonyl)phenyl)-4-cyclopropyl-3-(quinolin-5-yl)isothiazole-5-carboxamide]", "IC50": "≤ 400"}
{"smiles": "O=C(Nc1ccnc(C(F)(F)F)c1)c1snc(-c2cnccc2F)c1C1CC1", "note": "[I-192, 4-cyclopropyl-3-(4-fluoropyridin-3-yl)-N-(2-(trifluoromethyl)pyridin-4-yl)isothiazole-5-carboxamide]", "IC50": "≤ 400"}
{"smiles": "O=C(Nc1ccnc(C(F)(F)F)c1)c1snc(-c2ccccc2F)c1C1CC1", "note": "[I-147, 4-cyclopropyl-3-(2-fluorophenyl)-N-[2-(trifluoromethyl)pyridine-4-yl]-1,2-thiazole-5-carboxamide]", "IC50": "≤ 400"}
{"smiles": "O=C(Nc1cnc(-n2nccn2)c(Cl)c1)c1snc(-c2cccc3[nH]c(=O)ccc23)c1C(F)(F)F", "note": "[I-99]", "IC50": "≤ 400"}
